Peptide text beside a SMILES is read from it. * marks the point of attachment. Palmitoyl = CCCCCCCCCCCCCCCC(=O)*
What was measured:
Assay type in all cases: cell-based
Fibronectine = assay: ELISA assay of fibronectin synthesis by normal human fibroblasts; details: NHF, 72 h contact, ELISA on supernatant
Method: (§1) Normal human fibroblasts (NHF) in culture are brought into contact with the products to be tested or their excipient (negative control) for 72 h. At the end of the contact, the culture supernatants are removed, and the syntheses of the dermal macromolecules are estimated by ELISA assays. An estimate of cell viability is carried out by Hoechst assay to weight the obtained data. Collagen I is evaluated via the PIP assay (carboxy-terminal propeptide of procollagen type I) which is a peptide fragment resulting from the enzymatic degradation of procollagen when the latter is excreted outside the fibroblast (therefore in the culture medium where the assay is carried out).

Fibrillin 1 = assay: Immunofluorescence assay of Fibrillin 1 formation by normal human fibroblasts; details: NHF, five day incubation
Method: Normal human fibroblasts (NHF) are cultured for at least 24 hours in fibroblast growth medium containing serum. Once confluence was reached, the cells are seeded and the actives and corresponding controls diluted in a culture medium are added. At the end of a five day incubation period, the supernatant is removed, the cells are washed with PBS and fixed. The cells are then incubated with the primary Fibrillin 1 monoclonal antibody (11C1.3) (Thermo Fisher) diluted in blocking buffer at a concentration of 1:200. The cells are incubated. The primary antibody is removed and the cells are washed with PBS. The secondary antibody was added at a dilution of 1:1000 in blocking buffer, then removed and the cells are washed with PBS. The formation of Fibrillin 1 by the cells is visualized using a fluorescence microscope. The obtained images are analyzed using an image processing software assigning a numerical value to the coverage density.

Collagen I (PIP) = assay: ELISA assay of collagen I synthesis (PIP) by normal human fibroblasts; details: NHF, 72 h contact, ELISA on supernatant
Method: as §1

Decorine [1] = assay: ELISA assay of decorin synthesis by normal human fibroblasts; details: NHF, 72 h contact, ELISA on supernatant
Method: as §1

Collagen IV = assay: ELISA assay of collagen IV synthesis by normal human fibroblasts; details: NHF, 72 h contact, concentrations of 2 to 3 ppm, ELISA on supernatant
Method: as §1

Decorine [2] = assay: LC-MS/MS analysis of secretome and matrisome of human dermal fibroblasts: Decorine; details: HDF, seven days culture, pooled secretome and matrisome, n=3, 0.05<p<0.1
Method: (§2) Protocol Human dermal fibroblasts (HDF) are cultured with or without the peptide according to the invention (control) in n=3. The cells are cultured normally for five days in serum supplemented medium, then for two additional days in serum-free medium (culture of seven days in total). The cellular medium (secretome) is collected and the matrix separated from the cells with EDTA. The secretome and matrisome are kept for LC-MS/MS analysis. The cells are saved for future analysis. The secretome and matrisome compartments are pooled and processed as single samples.
(§3) Mass spectrometry is used to determine the total amount of certain proteins identified in the secretome and matrisome in the presence of the peptide of the invention and which are absent from the control following the day 7 of incubation. The proteins are denatured (in urea), reduced (in dithiothreitol) and mechanically dissociated (using ultrasound) prior to overnight digestion with the SMART Digest™ Trypsin Kit (Thermo Fisher).
(§4) The samples are analyzed on an UltiMate® 3000 rapid separation liquid chromatograph coupled to a Q Exactive™ Quadrupole-Orbitrap™ hybrid mass spectrometer: 200 ng injected at an analysis time of 90 minutes per sample.
(§5) Protein quantification is performed using Progenesis QI and protein identification using Mascot v2.5.1. Normalized protein concentrations are compared between the peptide and the control. […]

SOD3 = assay: LC-MS/MS analysis of secretome and matrisome of human dermal fibroblasts: SOD3; details: HDF, seven days culture, pooled secretome and matrisome, n=3, 0.05<p<0.1
Method: as §2, §3, §4, §5

Hyaluronic acid = assay: ELISA assay of hyaluronic acid synthesis by normal human fibroblasts; details: NHF, 72 h contact, concentrations of 2 to 3 ppm, ELISA on supernatant
Method: as §1

RAD23A = assay: LC-MS/MS analysis of secretome and matrisome of human dermal fibroblasts: RAD23A; details: HDF, seven days culture, pooled secretome and matrisome, n=3, 0.05<p<0.1
Method: as §2, §3, §4, §5

Nidogen-1 = assay: LC-MS/MS analysis of secretome and matrisome of human dermal fibroblasts: Nidogen-1; details: HDF, seven days culture, pooled secretome and matrisome, n=3, p<0.05
Method: as §2, §3, §4, §5

Molecule	Fibronectine synthesis, change vs excipient control (Fibronectine; concentrations of 5 to 15 ppm)	Fibrillin 1 formation (coverage density), change vs control (Fibrillin 1; 10 ppm)	Collagen I (PIP) synthesis, change vs excipient control (Collagen I (PIP); concentrations of 5 to 15 ppm)	Decorine synthesis, change vs excipient control (Decorine [1]; concentrations of 5 to 15 ppm)	Collagen IV synthesis, change vs excipient control (Collagen IV)	Decorine protein amount vs control (Decorine [2])	Fibronectine synthesis, change vs excipient control (Fibronectine; concentrations of 2 to 3 ppm)	SOD3 protein amount vs control (SOD3)	Hyaluronic acid synthesis, change vs excipient control (Hyaluronic acid)	Fibrillin 1 formation (coverage density), change vs control (Fibrillin 1; 4 ppm)	RAD23A protein amount vs control (RAD23A)	Collagen I (PIP) synthesis, change vs excipient control (Collagen I (PIP); concentrations of 2 to 3 ppm)	Decorine synthesis, change vs excipient control (Decorine [1]; concentrations of 2 to 3 ppm)	Nidogen-1 protein amount vs control (Nidogen-1)
CCCCCCCCCCCCCCCC(=O)N[C@@H](CC(C)C)C(=O)N[C@@H](CCCCN)C(=O)N[C@@H](CC(C)C)C(=O)N[C@@H](CCC(=O)O)C(=O)O [Pal-LKLE-OH, palmitoyl-leucyl-lysyl-leucyl-glutamic acid] (Palmitoyl-LKLE-OH)	+48%	+81% (p < 0.05)	+81%	+21%	–	–	–	–	–	–	–	–	–	–
Pal-ELED-OH: N-palmitoylated tetrapeptide Glu-Leu-Glu-Asp, free C-terminal acid; ELED is a fragment of Biglycan (Palmitoyl-ELED-OH; SMILES CCCCCCCCCCCCCCCC(=O)N[C@@H](CCC(=O)O)C(=O)N[C@@H](CC(C)C)C(=O)N[C@@H](CCC(=O)O)C(=O)N[C@@H](CC(=O)O)C(=O)O)	–	–	–	–	+42%	stimulation	+70%	stimulation	+28%	+97% (p < 0.05)	stimulation	+42%	+69%	stimulation
